The text below walks through data of patent US12275685B2, “Oligo-benzamide analogs and their use in cancer treatment” (Board of Regents, The University of Texas System, priority 2018, dated 2025).

In experiment [1] the target is T1, lipase activity of LIPA (Homo sapiens, UniProt P38571).
T1 construct: lipase activity of parental SUM-159 (WT) and SUM-159 cells with LIPA KO; endogenous in cells; host or cells: SUM-159 (parental)
The experiment is described as follows: Lipase activity assay. Format: biochemical. Particulars: SUM-159 cells. An excerpt: FIGS. 39A-N: (FIGS. 39A-E) Predicted binding mode of ERX-41 (colored in green) on the human lysosomal acid lipase (LAL, PDB code: 6V7N, LXXLL (SEQ ID NO: 1) domain colored in orange). (FIG. 39F) PDB structure of LAL protein showing relative positions of the catalytic domain (with H274Y MT) and the LXXLL (SEQ ID NO: 1) domain (L242P MT). (FIG. 39G) Evaluation of the effect of ERX-41 and lalistat (known lipase inhibitor) on lipase activity of parental SUM-159 (WT) and SUM-159 cells with LIPA KO. (FIG. 39H) Evaluation of basal lipase activity in parental SUM-159 (WT), SUM-159 cells with LIPA KO (KO), SUM-159 cells with LIPA KO and with reconstitution of either WT LIPA (KO+WT), H274Y MT-LIPA (KO+H274Y), DLXXLL (SEQ ID NO: 2) MT-LIPA (KO+DLXXLL (SEQ ID NO: 2)) or L242P MT-LIPA (KO+L242P). Protein expression of LAL and control vinculin in these cells are shown below (FIG. 391) Cellular lysates from described SUM-159 cells were incubated with biotinylated ERX-11 or biotinylated ERX-41 and then subject to a streptavidin column. Elutants were then evaluated for LIPA pulldown by western blotting. (FIG. 39J) Dose response curve to increasing concentrations of ERX-41 in described SUM-159 cells. (FIGS. 39K-M) Effect of vehicle or 1 μM ERX-41 on induction of UPR genes at the protein level (FIG. 39K) or RNA level (FIGS. 39L-M). […]

Experiment [2] concerns HMEC cells. Put plainly: Live cell imaging with SYTOX Green, HMEC. Format: cell-based, human. The source says:
FIGS. 34A-C: Dose response curve of ERX-41 in multiple TNBC. cell lines using WST-1 assays (FIG. 34A) and CellTiter-Glo assays (FIG. 34B). […] Quantification of the number of dead cells over time seen with live cell imaging in MDAMB-231 and HMEC cells is shown.
To evaluate the generalizability of the inventors' findings, they evaluated ERX-41 in a large number of TNBC and ERa-positive cell lines.

Experiment [3] deals with SUM-159 cells with LIPA KO. The experiment is described as follows: Live cell imaging of SUM-159 with LIPA KO. Format: cell-based. The following applies: 1 μM. The source says: FIGS. 37A-J: The molecular target of ERX-41 in TNBC is LIPA. […] (FIG. 37B) Knockout clones of LIPA, ACACA, TMEM208, SOAT1 and ARID1A were generated in MDA-MB-231 cells and evaluated for response to ERX-41 using doseresponse curves using CellTiter-Glo assays in vitro. (FIGS. 37C-D) Effect of knockout of LIPA in SUM-159 (FIG. 37C) and MDA-MB436 (FIG. 37D) on dose response curve to ERX-41 using CellTiter-Glo assays in vitro. (FIGS. 37E-F) Dose response curves of SUM-159 parental cells and clones with LIPA KO to thapsigargin (FIG. 37E) and paclitaxel (FIG. 37F). (FIGS. 37G-H) Live cell imaging studies with SYTOX Green to examine ability of 1 μM ERX-41 to induce cell death in parental SUM-159 and SUM-159 clones with LIPA KO, with quantitation (FIG. 37G) and time-lapsed photomicrographs at 0 h and 30 h ((FIG. 37H). (FIGS. 37I-J) SCID mice were implanted with either parental SUM-159 or SUM-159 clones with LIPA KO (n=6, each group) and tumors were allowed to establish (150 mm^3). Following daily intraperitoneal administration of 10 mg/kg ERX-41, tumor sizes were measured and graphed (FIG. 37I), along with mice body weights (FIG. 37J). *p<0.05. **p<0.01; ***p<0.001.
The molecular target of ERX-41 in TNBC is LIPA. […] Knockout clones of LIPA, SLC5A3, SMAP2, TMEM208, SOAT1 and ARID1A were generated in multiple TNBC cells and evaluated for response to ERX-41.

Molecules are shown by their SMILES.

T1 sequence (P38571 77-399): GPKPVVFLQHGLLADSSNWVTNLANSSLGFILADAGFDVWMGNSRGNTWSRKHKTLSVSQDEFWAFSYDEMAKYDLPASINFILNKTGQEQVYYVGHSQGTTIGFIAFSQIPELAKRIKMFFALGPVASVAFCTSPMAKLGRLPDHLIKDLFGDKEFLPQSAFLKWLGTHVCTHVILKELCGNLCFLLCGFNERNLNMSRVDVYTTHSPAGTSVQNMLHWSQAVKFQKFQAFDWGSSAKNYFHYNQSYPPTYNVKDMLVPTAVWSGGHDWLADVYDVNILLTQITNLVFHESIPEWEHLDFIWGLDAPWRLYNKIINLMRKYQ

Regarding `CC(C)COc1cc(C(=O)Nc2ccc(C(=O)N[C@H]3CC[C@H](C)CC3)cc2OCC(C)C)ccc1NC(=O)c1ccc([N+](=O)[O-])c(OCCO)c1` [TK41], the “effect on lipase activity of LIPA” value in experiment [1] is listed as “no inhibition of lipase activity”. In experiment [2], the “cell death in HMEC” value is listed as “did not significantly induce cell death”. The “cell death after KO of LIPA” value in experiment [3] is “dramatic decrease in cell death”.
